The target of the assay is T1, 5-HT2C receptor (Homo sapiens, UniProt P28335).
T1 construct: WuXi AppTec (Hong Kong) Limited (contract laboratory that ran the assay)
T1 sequence (P28335 33-458): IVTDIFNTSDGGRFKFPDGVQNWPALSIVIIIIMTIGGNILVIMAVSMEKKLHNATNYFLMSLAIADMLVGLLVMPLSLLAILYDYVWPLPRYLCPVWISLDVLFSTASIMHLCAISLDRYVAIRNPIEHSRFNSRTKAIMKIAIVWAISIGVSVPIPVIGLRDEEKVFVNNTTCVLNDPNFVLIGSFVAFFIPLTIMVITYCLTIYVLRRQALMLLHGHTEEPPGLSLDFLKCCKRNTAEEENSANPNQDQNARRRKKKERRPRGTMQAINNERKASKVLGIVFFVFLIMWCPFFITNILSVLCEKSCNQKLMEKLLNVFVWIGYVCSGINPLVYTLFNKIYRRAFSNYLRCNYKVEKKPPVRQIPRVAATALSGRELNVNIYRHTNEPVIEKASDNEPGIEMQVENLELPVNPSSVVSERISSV
Kind of assay: biochemical. It is filed as binding. As to conditions: HEK293 stable cell line, 2 nM [3H]mesulergine, 1 h, 25° C.; for Ki: read-out: 5-HT2C Ki (nM) ([3H]mesulergine).

The Ki is a dissociation constant, usually derived from enzyme kinetics or from competition with a known ligand. On to `CC(CNC(=N)CNc1ccccc1)Oc1cccc(Cl)c1.O=CO` (centres unmarked) [BW501C67, N-(2-(3-chlorophenoxy)propyl)-2-(phenylamino)acetimidamide formate], for which the “5-HT2C Ki (nM) ([3H]mesulergine)” value is recorded as “high affinity” and the Ki was found to be 1.34 nM.

Take `CC(C)COc1ccc(CNC(=O)N(Cc2ccc(F)cc2)C2CCN(C(=O)CC[C@H](N)C(=O)O)CC2)cc1` [Compound 14a, (S)-2-amino-5-(4-(1-(4-fluorobenzyl)-3-(4-isobutoxybenzyl)ureido)piperidin-1-yl)-5-oxopentanoic acid]: the Ki was found to be 106 nM.

In the case of `COc1cccc(OC(C)CNC(=N)Cc2cccc(C)c2)c1.O=C(O)C(F)(F)F` (centres unmarked) [xylamidine, N-(2-(3-methoxyphenoxy)propyl)-2-(m-tolyl) acetimidamide trifluoroacetate], the “5-HT2C Ki (nM) ([3H]mesulergine)” value is given as “high affinity” and the Ki turned out to be 1.45 nM.
